In publication PMC12066977, “Alkyl Tail Variation on Chalcone‐Based Quaternary Pyridinium Salts as Rule‐of‐Thumb for Antimicrobial Activity” (Archiv Der Pharmazie, 2025):
Where two headings read alike, the source gives them in different places.

Experiments:
Leishmania donovani = test system: Leishmania donovani; design: method as in PMID 30669643, PMID 29758517; conditions: lead compound 1, previously reported; read-out: IC50 against Leishmania donovani; cited from earlier work
C. albicans ATCC 10231 [1] = conditions: lead compound 1, previously reported; read-out: IC50 [95% confidence interval] Candida albicans; cited from earlier work
E. coli ATCC 25922 = experiment: Broth microdilution antimicrobial assay (MIC, IC50); type: cell-based; conditions: Escherichia coli, 24 h; for MIC: ATCC25922, broth microdilution, 37°C
Experimental: (§1) Reference strains of Staphylococcus aureus (ATCC 25923), Escherichia coli (ATCC 25922), and Candida albicans (ATCC 10231) were used in this study as microbial models. These strains were purchased from the American Type Culture Collection (ATCC); bacterial cultures were routinely grown on 5% blood agar plate, while fungal cultures on Sabouraud Dextrose Agar (Biolife […]., Milan, Italy). […] In short, microbial inocula were prepared at 0.5 McFarland in PBS and, subsequently, bacterial suspensions were diluted 1:200 in Mueller-Hinton broth (Sigma-Aldrich, St. Louis, MO, USA), while fungal inoculum was diluted 1:20 in RPMI-1640 medium (Gibco®, ThermoFisher Scientific Inc., Waltham, MA, USA), containing glucose 2%, 0.3% levo-glutamine buffered to pH 7.0 with 0.165 M 3-(N-morpholino) propanesulfonic acid (MOPS). A total of 100 μL of these microbial suspensions was introduced into a 96-well microplate and incubated with 100 μL of the compounds, two-fold serially diluted in the range of 100-0.19 μM. Positive controls (microbial suspensions in regular media), negative controls (only compounds), and solvent controls (microbial suspensions incubated with DMSO dilutions) were included in the tests. The plate was incubated at 37°C for 24 h, and subsequently the optical density at 630 nm (OD630nm) was spectrophotometrically measured. Experiments were carried out in triplicate in three biological replicates. […] Statistical analysis was carried out by using GraphPad Prism version 9.4.1 for Windows (GraphPad Software, San Diego, California USA, www.graphpad.com). ^a MIC (Minimum Inhibitory Concentration) were determined in vitro by means of a standardized microdilution assay, in compliance with the Clinical and laboratory Standard Institute (CLSI) guidelines (30). Microbial suspensions were prepared at 0.5 McFarland in PBS, then diluted in the media and transferred in a 96 micro-well plate together with the serially 2-fold dilutions of the compounds. After 24h of incubation at 37°C, microbial growths were evaluated by measuring the Optical Density at 600 nm, then percentage values were obtained as relative to the positive controls (microbial suspensions in regular media).

S. aureus ATCC 25923 = experiment: as above; type: cell-based; conditions: Staphylococcus aureus; for IC50: ATCC25923, 50% growth inhibition, 24 h, read-out: IC50 [95% confidence interval] Staphylococcus aureus; for MIC: ATCC25923, 24 h, broth microdilution, 37°C
Experimental: as §1

[2] = test system: S. aureus ATCC 25923, E. coli ATCC 25922, C. albicans ATCC 10231; experiment: Broth microdilution antimicrobial assay, statements pooled over the three strains; type: cell-based; conditions: stated for S. aureus, E. coli and C. albicans together; read-out: MIC toward the three selected strains
Experimental: The antimicrobial activity of the compounds was assessed by determining the Minimum Inhibitory Concentration (MIC) by a well‐established broth microdilution procedure in microtiter plates and in compliance with the Clinical and Laboratory Standards Institute (CLSI) guidelines.
In short, microbial inocula were prepared at 0.5 McFarland in PBS and, subsequently, bacterial suspensions were diluted 1:200 in Mueller–Hinton broth (Sigma‐Aldrich, St. Louis, MO, USA), while fungal inoculum was diluted 1:20 in RPMI‐1640 medium (Gibco®, ThermoFisher Scientific Inc., Waltham, MA, USA), containing glucose 2%, 0.3% levo‐glutamine buffered to pH 7.0 with 0.165 M 3‐(N‐morpholino) propanesulfonic acid (MOPS). A total of 100 µL of these microbial suspensions was introduced into a 96‐well microplate and incubated with 100 µL of the compounds, two‐fold serially diluted in the range of 100–0.19 µM. Positive controls (microbial suspensions in regular media), negative controls (only compounds), and solvent controls (microbial suspensions incubated with DMSO dilutions) were included in the tests. The plate was incubated at 37°C for 24 h, and subsequently the optical density at 630 nm (OD630nm) was spectrophotometrically measured. Experiments were carried out in triplicate in three biological replicates. […]

Vero cells (ATCC CCL-81) = experiment: Cell viability and proliferation assay (WST8/CCK-8); type: cell-based; conditions: 48 h treatment, CCK-8; read-out: CC50 [95% CI] Vero cells
Experimental: (§2) Vero cell line (ATCC CCL‐81) was selected as a model system to investigate the overall effect of chalcones on non‐malignant mammalian cells. […] For experiments, cells were seeded into 96‐well plates at 10^4 cells/well and incubated at 37°C for 24 h. Following washes with PBS, the cell monolayer was incubated with 100 µL of medium containing the twofold serial dilutions of the compounds. Both untreated cells and cells incubated with medium containing solvent dilutions were included in each experiment as controls. The cell viability was assessed by a WST8‐based assay according to the manufacturer's instructions (CCK‐8, Cell Counting Kit‐8, Dojindo Molecular Technologies, Rockville, MD, USA). After 48 h of incubation, culture medium was removed from each well, the monolayer was washed with PBS, and 100 µL of fresh medium containing 10 µL of CCK‐8 solution was added. Following a 2 h incubation at 37°C, the OD450nm was read, and data were expressed as the percentage of cell viability relative to the untreated controls. The CC50 was obtained on the corresponding dose–response curves generated as previously reported for IC50 values. Experiments were carried out in triplicate in three biological replicates.

C. albicans ATCC 10231 [3] = experiment: Broth microdilution antimicrobial assay (MIC, IC50); type: cell-based; conditions: Candida albicans, 24 h; for MIC: ATCC10231, broth microdilution, 37°C
Experimental: as §1

S. aureus biofilm = experiment: Inhibition of biofilm formation (crystal violet staining); type: cell-based; conditions: Staphylococcus aureus, 24 h, CV staining, read-out: inhibition of S. aureus biofilm production
Experimental: (§3) The ability of some selected compounds to inhibit biofilm formation was assessed by established protocols with minor modifications. In short, exponential cultures of S. aureus, E. coli, and C. albicans grown in Tryptic Soy broth (TSB, Sigma‐Aldrich, St. Louis, MO, USA) were adjusted to a final density of 10^5 CFU/mL. Aliquots of 100 µL of the microbial cultures were transferred to a 96‐well flat‐bottom polystyrene microplate, and then incubated at 37°C for 90 min to promote bacterial adhesion. Thereafter, wells were slowly rinsed with PBS to remove nonattached cells, and 100 µL of TSB supplemented with 1% glucose containing the twofold serial dilutions of the compounds was added. After incubation at 37°C for 24 h, the free‐floating cells were removed, and the biofilms were carefully washed with PBS. The biomass was quantified by a standardized crystal violet (CV) staining. Briefly, 100 µL of CV solution (0.1% in water) was added to each well containing a completely air‐dried biofilm, and incubated for 30 min at 37°C. […] Finally, the colored supernatants were transferred to a new microplate, and the OD550nm was measured. The percentage inhibition of biofilm formation in the different experimental conditions was calculated relative to the biofilm mass formed in the absence of compounds (positive control).

E. coli biofilm = experiment: as above; type: cell-based; conditions: Escherichia coli, 24 h, CV staining, read-out: inhibition of E. coli biofilm production
Experimental: as §3

[4] = test system: human red blood cells (hRBCs); experiment: Hemolytic activity assay; type: cell-based; conditions: 25 µM, 90 min, 37°C
Experimental: The hemolytic activity of some selected compounds was evaluated as the amount of hemoglobin released by the disruption of human red blood cells (hRBCs). For the experiments, fresh hRBCs were collected by centrifugation at 1500g for 10 min, washed three times with PBS, and resuspended to a final concentration of 4% w/v hRBCs in PBS. Then, 100 µL of hRBCs suspension and an equal volume of the twofold dilutions of the antimicrobial peptides were mixed in a 96‐well plate and incubated for 90 min at 37°C. After centrifugation at 1000g for 5 min, the supernatants were transferred into a clear 96‐well plate, and OD405nm was read. Untreated hRBCs (incubated with PBS) and hRBCs incubated with 1% Triton X‐100 were employed as negative and positive controls, respectively. The hemolysis percentage was calculated as [OD405nm (sample) − OD4_05nm (negative control)]/[OD405nm (positive control) − OD405nm (negative control)] × 100. Minimal hemolytic concentrations (MHCs) were defined as the compound concentration causing 10% hemolysis. Three independent experiments were performed in triplicate.

[5] = Cell viability and proliferation assay (WST8/CCK-8); type: cell-based; conditions: African green monkey, Vero cells (ATCC CCL-81), 48 h treatment, CCK-8; read-out: CC50 [95% CI] Vero cells
Experimental: as §2

Structure (SMILES) | IC50 (Leishmania donovani) | IC50 (C. albicans ATCC 10231 [1]) | MIC (E. coli ATCC 25922) | IC50 (S. aureus ATCC 25923) | MIC [2] | CC50 (Vero cells (ATCC CCL-81)) | MIC (C. albicans ATCC 10231 [3]) | MIC (S. aureus ATCC 25923) | inhibition at 25 µM (S. aureus biofilm) | inhibition at 25 µM (E. coli biofilm) | hemolytic activity [4] | CC50 at 48 h [5] | IC50 (E. coli ATCC 25922; ATCC25922, 50% growth inhibition, read-out: IC50 [95% confidence interval] Escherichia coli) | IC50 (C. albicans ATCC 10231 [3]; ATCC10231, 50% growth inhibition, read-out: IC50 [95% confidence interval] Candida albicans)
C#CCOc1ccc(C(=O)/C=C/c2cccnc2)c(OCC#C)c1 [Compound 1] | 4 µM | 43.8 µM | > 100 µM | 47.6 µM | – | – | – | – | – | – | – | – | – | –
C#CCOc1ccc(C(=O)/C=C/c2cccnc2)c(OCC#C)c1 [Compound 9, (E)‐3‐{3‐[2,4‐Bis(prop‐2‐yn‐1‐yloxy)phenyl]‐3‐oxoprop‐1‐en‐1‐yl}pyridin‐1‐ium bromide] | – | – | – | – | ≥ 50 µM | 6.2 µM | > 100 µM | > 100 µM | – | – | – | – | – | –
C#CCOc1ccc(C(=O)/C=C/c2ccc[n+](CCCCCCCCCC)c2)c(OCC#C)c1.[Br-] [Compound 4, (E)‐3‐{3‐[2,4‐Bis(prop‐2‐yn‐1‐yloxy)phenyl]‐3‐oxoprop‐1‐en‐1‐yl}‐1‐decylpyridin‐1‐ium bromide] | – | – | 6.25 µM | 0.84 µM | – | – | 6.25 µM | 1.56 µM | > 90% | > 90% | 30.0% | 12.8 µM | 4.48 µM | 4.28 µM
